We go through six compounds from patent US20030187028A1, “Medicament for viral diseases” (priority 2000, published 2003).

Molecules are shown by their SMILES.

The subject of data set [1] is hepatitis B virus-producing HepG2.2.15 cells. Description: Antiviral test: reduction of HBV DNA in HepG2.2.15 cells (dot-blot hybridization). Type of data set: cell-based. Conditions: HepG2.2.15, 96 h. The method, then: The antiviral action of the compounds according to the invention was investigated by methods based on those described by M. A. Sells et al., Proc. Natl. Acad. Sci. 84, 1005-1009 (1987) and B. E. Korba et al., Antiviral Research 19, 55-70 (1992).
The antiviral tests were carried out in 96-well microtitre plates. The first vertical row of the plate received only growth medium and HepG2.2.15 cells. It served as virus control.
Stock solutions of the test compounds (50 mM) were initially dissolved in DMSO, and further dilutions were prepared in the HepG2.2.15 growth medium. The compounds according to the invention were usually pipetted in a test concentration of 100 μM (1st test concentration) in each case into the second vertical test row of the microtitre plate and subsequently diluted in twofold steps 2^10 times in growth medium+2% by weight fetal calf serum (volume 25 μl).
Each well of the microtitre plate then contained 225 μl of HepG2.2.15 cell suspension (5×10^4 cells/ml) in growth medium+2% by weight of fetal calf serum.
The test mixture was incubated at 37° C. and 5% CO2 (v/v) for 4 days.
The supernatant was then aspirated off and discarded, and the wells received 225 μl of freshly prepared growth medium. The compounds according to the invention were each added anew as 10-fold concentrated solution in a volume of 25 μl. The mixtures were incubated for a further 4 days.
The supernatants/cells were then harvested and sucked by means of a vacuum onto 96-well dot-blot chambers covered with a nylon membrane (in accordance with the manufacturer's information).
After the supernatants or cells had been transferred to the nylon membrane of the blot apparatus (see above), the supernatants of the HepG2.2.15 cells were denatured (1.5 M NaCl/0.5 N NaOH), neutralized (3M NaCl/0.5M Tris HCl, pH 7.5) and washed (2×SSC). The DNA was then baked onto the membrane by incubating the filters at 120° C. for 2-4 hours.
Detection of the viral DNA from the treated HepG2.2.15 cells on the nylon filters was easily carried out with non-radioactive, digoxigenin-labelled hepatitis B-specific DNA probes, each of which was labelled with digoxigenin, purified and employed for the hybridization in accordance with the manufacturer's information.
The prehybridization and hybridization took place in 5×SSC, 1× blocking reagent, 0.1% by weight N-lauroylsarcosine, 0.02% by weight SDS and 100 μg of herring sperm DNA. The prehybridization took place at 60° C. for 30 minutes, and the specific hybridization with 20 to 40 ng/ml of the digoxigenized, denatured HBV-specific DNA took place at 60° C. for 14 hours. The filters were then washed.
The immunological detection of the digoxigenin-labelled DNA took place in accordance with the manufacturer's information:
The filters were washed and prehybridized in a blocking reagent (in accordance with the manufacturer's information). Hybridization was then carried out with an anti-DIG antibody coupled to alkaline phosphatase for 30 minutes. After a washing step, the substrate of alkaline phosphatase, CSPD, was added, incubated with the filters for 5 minutes, then packed in plastic film and incubated at 37° C. for a further 15 minutes.
The chemiluminescence of the hepatitis B-specific DNA signals was visualized by exposing the filters to an X-ray film (incubation depending on signal strength: 10 minutes to 2 hours).
The half-maximum inhibitory concentration (IC-50, 50% inhibitory concentration) was determined as the concentration at which the hepatitis B-specific band was reduced by the compound according to the invention by 50% compared with an untreated sample.

For data set [2], the system named is HepG2.2.15 cells. Description: Cytotoxicity determination in HepG2.2.15 cells. Type of data set: cell-based. As to conditions: 50% cytotoxicity. From the text:
Before harvesting the supernatants and/or cells to determine the antiviral effect, the HepG2.2.15 cells were examined under the light microscope or by means of biochemical detection methods (for example Alamar Blue stain or Trypan Blue stain) for cytotoxic changes.
Substance-induced cytotoxic or cytostatic changes in the HepG2.2.15 cells were detected, for example, under the light microscope as changes in cell morphology. Such substance-induced changes in the HepG2.2.15 cells compared with untreated cells were visible, for example, as cytolysis, vacuolation or altered cell morphology.
The tolerability of some of the compounds according to the invention was additionally tested on other host cells such as, for example, HeLa cells, primary human peripheral blood cells or transformed cell lines such as H-9 cells.
As a rule, the compounds according to the invention were tolerated up to concentrations of 10 μM (Tox. −50).

`Cc1cc(NC(=O)c2c(C)noc2C(F)(F)F)ccc1F` [Example 16] registered an IC50 in data set [1] of 750 nM. In addition, in data set [2], the Tox-50 is on record as greater than 100 μM/l.

`Cc1cc(NC(=O)c2c(C)noc2C)ccc1F` [Example 2, N-(4-Fluoro-3-methylphenyl)-3,5-dimethylisoxazole-4-carboxamide] had an IC50 in data set [1] of 200 nM. In addition, the Tox-50 in data set [2] was greater than 100 μM/l.

Take `CCc1onc(C)c1C(=O)Nc1ccc(F)c(Cl)c1` [Example 12]: the half-inhibitory concentration (IC50) in data set [1] was determined as 500 nM. Also, the Tox-50 in data set [2] was greater than 100 μM/l.

Regarding `CCCc1onc(C)c1C(=O)Nc1cccc(C)c1` [Example 21], the IC50 in data set [1] was found to be 1000 nM. Also, the Tox-50 in data set [2] is given as greater than 100 μM/l.

For the compound `Cc1oncc1C(=O)Nc1ccc(C(F)(F)F)cc1` [Leflunamide, N-(4-trifluoromethylphenyl)-5-methylisoxazole-4-carboxamide, reference compound], in data set [1], the IC50 was greater than 70000 nM. The same compound returned a Tox-50 in data set [2] of 70 μM/l.

With `Cc1cccc(NC(=S)c2c(C)noc2C)c1` [Example 29], the IC50 in data set [1] turned out to be 4000 nM. The same compound yielded a Tox-50 in data set [2] greater than 100 μM/l.
